For one experiment, the target named is Hsp90α (Homo sapiens, UniProt P07900). Put plainly: biochemical. To be noted: FP competition, 6 nM Cy3B-GM, 10 nM protein, 4° C. for 24 h.
Another experiment deals with Grp94 (Canis lupus familiaris, UniProt P41148). As to conditions: read-out: Grp94; FP competition, 6 nM Cy3B-GM, 10 nM protein, 4° C. for 24 h.

This note sets out measurements from patent US12600725B2 (Memorial Sloan-Kettering Cancer Center, priority 2013, dated 2026).

Sequence of Grp94 (P41148 with tags, fused parts or gaps DELINS287-327GGGG): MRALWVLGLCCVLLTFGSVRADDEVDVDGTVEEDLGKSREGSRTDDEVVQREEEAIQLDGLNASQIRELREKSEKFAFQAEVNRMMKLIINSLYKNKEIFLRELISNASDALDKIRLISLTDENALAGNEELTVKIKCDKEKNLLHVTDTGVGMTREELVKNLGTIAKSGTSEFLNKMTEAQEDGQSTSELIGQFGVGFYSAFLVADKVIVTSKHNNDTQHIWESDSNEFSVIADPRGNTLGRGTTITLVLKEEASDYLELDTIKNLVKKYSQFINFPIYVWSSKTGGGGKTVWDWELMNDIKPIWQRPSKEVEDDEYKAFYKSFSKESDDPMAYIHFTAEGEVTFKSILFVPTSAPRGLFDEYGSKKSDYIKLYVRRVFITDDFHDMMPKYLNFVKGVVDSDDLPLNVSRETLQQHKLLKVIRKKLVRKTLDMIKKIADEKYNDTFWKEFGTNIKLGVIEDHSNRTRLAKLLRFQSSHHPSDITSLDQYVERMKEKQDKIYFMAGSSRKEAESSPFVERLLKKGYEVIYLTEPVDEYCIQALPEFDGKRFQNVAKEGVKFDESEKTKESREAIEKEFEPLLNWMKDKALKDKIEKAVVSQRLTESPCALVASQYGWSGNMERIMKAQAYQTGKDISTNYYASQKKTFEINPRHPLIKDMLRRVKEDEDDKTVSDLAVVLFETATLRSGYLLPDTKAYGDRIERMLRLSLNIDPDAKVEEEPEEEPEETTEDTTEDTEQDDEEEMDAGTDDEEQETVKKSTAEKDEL

Take `Nc1ncnc2c1nc(Sc1cc(Cl)cc(Cl)c1)n2CCCN1CC(O)C1` [HJP-V-134, 1-(3-(6-amino-8-((3,5-dichlorophenyl)thio)-9H-purin-9-yl)propyl)azetidin-3-ol]: the IC50 at Hsp90α was above 10 µM; on Grp94, 0.38 µM.

With `Nc1ncnc2c1nc(Sc1cc(Cl)cc(Cl)c1)n2CCc1cccnc1` [HJP-V-140, 8-((3,5-dichlorophenyl)thio)-9-(2-(pyridin-3-yl)ethyl)-9H-purin-6-amine], the IC50 is above 50 µM on Hsp90α and 7.9 µM on Grp94.

As to `Nc1ncnc2c1nc(Sc1cc(Cl)cc(I)c1)n2CCc1cccnc1` [HJP-V-147, 8-((3-chloro-5-iodophenyl)thio)-9-(2-(pyridin-3-yl)ethyl)-9H-purin-6-amine], the IC50 was found to be 72.5 µM at Hsp90α and 0.86 µM on Grp94.

`COc1ccc(-c2cc(Cl)cc(Sc3nc4c(N)ncnc4n3CCCNC(C)C)c2)cc1` [HJP-VI-3, 8-((5-chloro-4′-methoxy-[1,1′-biphenyl]-3-yl)thio)-9-(3-(isopropylamino)propyl)-9H-purin-6-amine]: the IC50 on Hsp90α is above 25 µM; at Grp94, 2.7 µM.

With `COc1cccc(-c2cc(Cl)cc(Sc3nc4c(N)ncnc4n3CCCNC(C)C)c2)c1` [HJP-VI-7, 8-((5-chloro-3′-methoxy-[1,1′-biphenyl]-3-yl)thio)-9-(3-(isopropylamino)propyl)-9H-purin-6-amine], the results for the IC50 at Hsp90α and at Grp94 were 47.5 µM and 0.26 µM, respectively.

As for `CC(C)NCCCn1c(Sc2cc(Cl)cc(-c3cccc([N+](=O)[O-])c3)c2)nc2c(N)ncnc21` [HJP-VI-8, 8-((5-chloro-3′-nitro-[1,1′-biphenyl]-3-yl)thio)-9-(3-(isopropylamino)propyl)-9H-purin-6-amine], the figures for the IC50 on Hsp90α and on Grp94 were 47.3 µM and 0.58 µM, respectively.

Turning to `CC(C)NCCCn1c(Sc2cc(Cl)cc(-c3cccc(C(F)(F)F)c3)c2)nc2c(N)ncnc21` [HJP-VI-9, 8-((5-chloro-3′-(trifluoromethyl)-[1,1′-biphenyl]-3-yl)thio)-9-(3-(isopropylamino)propyl)-9H-purin-6-amine], the results for the IC50 at Hsp90α and at Grp94 were 13.8 µM and 0.26 µM, respectively.

As to `CC(C)NCCCn1c(Sc2cc(Cl)cc(-c3cccs3)c2)nc2c(N)ncnc21` [HJP-VI-10, 8-((3-chloro-5-(thiophen-2-yl)phenyl)thio)-9-(3-(isopropylamino)propyl)-9H-purin-6-amine], the IC50 was found to be 7.9 µM on Hsp90α and 0.16 µM on Grp94.

For the molecule `CC(C)=C(C)c1cc(Cl)cc(Sc2nc3c(N)ncnc3n2CCCNC(C)C)c1` [HJP-VI-14, 8-((3-chloro-5-(3-methylbut-2-en-2-yl)phenyl)thio)-9-(3-(isopropylamino)propyl)-9H-purin-6-amine], the IC50 is above 50 µM on Hsp90α and 0.16 µM at Grp94.

Turning to `CC(C)NCCCn1c(Sc2ccc(Cl)cc2F)nc2c(N)ncnc21` [HJP-VI-23, 8-((4-chloro-2-fluorophenyl)thio)-9-(3-(isopropylamino)propyl)-9H-purin-6-amine], the IC50 at Hsp90α is above 50 µM; at Grp94 it was 1.5 µM.

Regarding `CC(C)NCCCn1c(Sc2cc(Cl)cc(-c3ccco3)c2)nc2c(N)ncnc21` [HJP-VI-30, 8-((3-chloro-5-(furan-2-yl)phenyl)thio)-9-(3-(isopropylamino)propyl)-9H-purin-6-amine], the IC50 on Hsp90α was 16.7 µM; at Grp94, 0.32 µM.

`CC(C)NCCCn1c(Sc2ccc(Cl)cc2[N+](=O)[O-])nc2c(N)ncnc21` [HJP-VI-32, 8-((4-chloro-2-nitrophenyl)thio)-9-(3-(isopropylamino)propyl)-9H-purin-6-amine]: the figures for the IC50 on Hsp90α and at Grp94 were 14.2 µM and above 5 µM, respectively.

Consider `Cc1ccc(-c2cc(Cl)cc(Sc3nc4c(N)ncnc4n3CCCNC(C)C)c2)o1` [HJP-VI-38, 8-((3-chloro-5-(5-methylfuran-2-yl)phenyl)thio)-9-(3-(isopropylamino)propyl)-9H-purin-6-amine], for which the figures for the IC50 on Hsp90α and at Grp94 were 25.9 µM and 0.75 µM, respectively.

Turning to `CC(C)NCCCn1c(Sc2ccc(Cl)cc2-c2ccc[nH]2)nc2c(N)ncnc21` [HJP-VI-42, 8-((4-chloro-2-(1H-pyrrol-2-yl)phenyl)thio)-9-(3-(isopropylamino)propyl)-9H-purin-6-amine], the IC50 at Hsp90α was found to be 66.9 µM; at Grp94 it was 1.1 µM.

In the case of `CC(C)NCCCn1c(Sc2cc(Cl)cc(-c3cn[nH]c3)c2)nc2c(N)ncnc21` [HJP-VI-46, 8-((3-chloro-5-(1H-pyrazol-4-yl)phenyl)thio)-9-(3-(isopropylamino)propyl)-9H-purin-6-amine], the figures for the IC50 at Hsp90α and at Grp94 were 15.9 µM and 1.9 µM, respectively.

Consider `CC(C)C#Cc1cc(Cl)cc(Sc2nc3c(N)ncnc3n2CCCNC(C)C)c1` [HJP-VI-51, 8-((3-chloro-5-(3-methylbut-1-yn-1-yl)phenyl)thio)-9-(3-(isopropylamino)propyl)-9H-purin-6-amine], for which the values for the IC50 on Hsp90α and at Grp94 were above 50 µM and 1.2 µM, respectively.

Regarding `CC(C)NCCCn1c(Sc2cc(Cl)cc(C#CC3CC3)c2)nc2c(N)ncnc21` [HJP-VI-52, 8-((3-chloro-5-(cyclopropylethynyl)phenyl)thio)-9-(3-(isopropylamino)propyl)-9H-purin-6-amine], the figures for the IC50 at Hsp90α and on Grp94 were above 50 µM and 0.18 µM, respectively.

With `CC(C)NCCCn1c(Sc2cc(Cl)cc(C#CC(C)(C)C)c2)nc2c(N)ncnc21` [HJP-VI-53, 8-((3-chloro-5-(3,3-dimethylbut-1-yn-1-yl)phenyl)thio)-9-(3-(isopropylamino)propyl)-9H-purin-6-amine], the figures for the IC50 on Hsp90α and on Grp94 were above 50 µM and 0.63 µM, respectively.

Consider `CC(C)NCCCn1c(Sc2cc(Cl)cc(C#CCO)c2)nc2c(N)ncnc21` [HJP-VI-58, 3-(3-((6-amino-9-(3-(isopropylamino)propyl)-9H-purin-8-yl)thio)-5-chlorophenyl)prop-2-yn-1-ol], for which the IC50 on Hsp90α is above 50 µM; on Grp94, 5.8 µM.

As for `CC(O)C#Cc1cc(Cl)cc(Sc2nc3c(N)ncnc3n2CCCNC(C)C)c1` (stereo not shown) [HJP-VI-59, 4-(3-((6-amino-9-(3-(isopropylamino)propyl)-9H-purin-8-yl)thio)-5-chlorophenyl)but-3-yn-2-ol], the results for the IC50 at Hsp90α and on Grp94 were above 50 µM and 7.4 µM, respectively.

For `CC(C)=Cc1cc(Cl)cc(Sc2nc3c(N)ncnc3n2CCCNC(C)C)c1` [HJP-VI-62, 8-((3-chloro-5-(2-methylprop-1-en-1-yl)phenyl)thio)-9-(3-(isopropylamino)propyl)-9H-purin-6-amine], the results for the IC50 at Hsp90α and on Grp94 were above 50 µM and 0.28 µM, respectively.

Turning to `CC(C)NCCCn1c(Sc2cc(Cl)cc(/C=C/C3CC3)c2)nc2c(N)ncnc21` [HJP-VI-64, (E)-8-((3-chloro-5-(2-cyclopropylvinyl)phenyl)thio)-9-(3-(isopropylamino)propyl)-9H-purin-6-amine], the figures for the IC50 on Hsp90α and on Grp94 were above 50 µM and 0.24 µM, respectively.

For `C#CCCCn1c(Sc2cc(Cl)nc(Cl)c2)nc2c(N)ncnc21` [HJP-VI-66, 8-((2,6-dichloropyridin-4-yl)thio)-9-(pent-4-yn-1-yl)-9H-purin-6-amine], the IC50 on Hsp90α is above 5 µM; on Grp94, 1.9 µM.

On to `CC(C)NCCCn1c(Sc2cc(Cl)cc(/C=C/C(C)(C)C)c2)nc2c(N)ncnc21` [HJP-VI-72, (E)-8-((3-chloro-5-(3,3-dimethylbut-1-en-1-yl)phenyl)thio)-9-(3-(isopropylamino)propyl)-9H-purin-6-amine], for which the values for the IC50 at Hsp90α and at Grp94 were 14.2 µM and 0.102 µM, respectively.

Consider `CC(C)NCCCn1c(Sc2ccc(Cl)cc2Cl)nc2c(N)nccc21` [HJP-VI-101, 2-((2,4-dichlorophenyl)thio)-1-(3-(isopropylamino)propyl)-1H-imidazo[4,5-c]pyridin-4-amine], for which the IC50 on Hsp90α was 9.2 µM; at Grp94 it was above 5 µM.

`C#CCCn1cnc(N)c2nc(Sc3cc(Cl)cc(Cl)c3)nc1-2` [PDP-I-14-N3, 3-(But-3-yn-1-yl)-8-((3,5-dichlorophenyl)thio)-3H-purin-6-amine]: the values for the IC50 at Hsp90α and at Grp94 were above 50 µM and above 5 µM, respectively.

For the molecule `C#CCCCn1cnc(N)c2nc(Sc3cccc4ccccc34)nc1-2` [PDP-I-16-N3], the IC50 was above 100 µM at Hsp90α and above 5 µM at Grp94.

As to `C#CCCCn1cnc(N)c2nc(Sc3ccc(Cl)c(Cl)c3)nc1-2` [PDP-I-25-N3], the IC50 is above 50 µM at Hsp90α and 11.1 µM at Grp94.

Consider `C#CCCCn1cnc(N)c2nc(Sc3ccc(-n4cccc4)cc3)nc1-2` [PDP-I-51-N3], for which the figures for the IC50 on Hsp90α and on Grp94 were above 50 µM and above 5 µM, respectively.

`C#CCCCn1c(Sc2ccc(-n3cccc3)cc2)nc2c(N)ncnc21` [PDP-I-51-N9]: the values for the IC50 on Hsp90α and on Grp94 were above 50 µM and above 10 µM, respectively.

Turning to `C#CCCCn1cnc(N)c2nc(Sc3ccc(Br)cc3CC)nc1-2` [PDP-I-54-N3], the IC50 on Hsp90α was above 50 µM; at Grp94 it was above 10 µM.

As for `C#CCCCn1c(Sc2cc(Br)cc3ccn(Cc4ccc(OC)cc4)c23)nc2c(N)ncnc21` [PDP-I-55-N9], the IC50 on Hsp90α was above 50 µM; at Grp94, above 5 µM.

`C#CCCCn1cnc(N)c2nc(Sc3cn(Cc4ccc(OC)cc4)c4ncc(Br)cc34)nc1-2` [PDP-I-58-N3]: the results for the IC50 at Hsp90α and at Grp94 were above 50 µM and above 10 µM, respectively.

Turning to `C#CCCCn1c(Sc2cn(Cc3ccc(OC)cc3)c3ncc(Br)cc23)nc2c(N)ncnc21` [PDP-I-58-N9], the results for the IC50 at Hsp90α and on Grp94 were above 50 µM and above 10 µM, respectively.

Take `C#CCCCn1cnc(N)c2nc(Sc3ccc(Cl)c4ccccc34)nc1-2` [PDP-I-77-N3]: the IC50 was above 50 µM on Hsp90α and above 5 µM at Grp94.

On to `C#CCCCn1c(Sc2ccc(Cl)c3ccccc23)nc2c(N)ncnc21` [PDP-I-77-N9], for which the IC50 at Hsp90α was above 50 µM; at Grp94 it was above 2 µM.

On to `C#CCCCn1cnc(N)c2nc(Sc3cc(Cl)cc4c(Cl)ccnc34)nc1-2` [PDP-I-79-N3], for which the results for the IC50 on Hsp90α and at Grp94 were above 50 µM and above 5 µM, respectively.

As for `C#CCCCn1c(Sc2ccc(Cl)cc2)nc2c(N)ncnc21` [PU-H7], the IC50 at Hsp90α was above 100 µM; at Grp94, 1.5 ± 0.2 µM.
